The results in this text go back to PMC8311653, “Design, Synthesis, In Vitro and In Vivo Characterization of Selective NKCC1 Inhibitors for the Treatment of Core Symptoms in Down Syndrome” (Journal of Medicinal Chemistry, 2021).

Data set [1] is described as follows: In vitro metabolic stability in mouse liver microsomes. The settings on record: tissue homogenate, pH 7.4. The procedure:
1. Aqueous kinetic solubility. […]
3. In vitro mouse microsomial stability. […]
microsomes (Sekisui Xenotech, LCC), 0.1M Tris-HCl buffer (pH 7.4), and 10% DMSO. The final […]
After pre-incubation, the cofactors (NADPH, G6P, G6PDH, MgCl2 pre-dissolved in 0.1M Tris-HCl) were added to the incubation mixture and the incubation was continued at 37 °C for 1h. At each time point (0, 5, 15, 30, 60 min), 30µL of incubation mixture was diluted with 200 µL cold acetonitile spiked with 200 nM of warfarin as internal standard, followed by centrifugation at 3500 g for 30 min. The supernatant was further diluted with H2O (1:1) for analysis.
An aliquot of 200 µl of the supernatant was removed, and the concentration of the test compound was […]
quantified by LC-MS/MS. The percentage of the test compound remaining at each time point relative […]
to t=0 was calculated. The half-lives (t½) were determined by a one-phase decay equation using a […]
non-linear regression of compound concentration vs time.
For orientation: Microsomes from liver hold many membrane-bound enzymes, among them those of drug oxidation.

The target of another data set is T1, NKCC1 (Homo sapiens, UniProt P55011).
T1 construct: host or cells: HEK293
T1 sequence (P55011 1-1212): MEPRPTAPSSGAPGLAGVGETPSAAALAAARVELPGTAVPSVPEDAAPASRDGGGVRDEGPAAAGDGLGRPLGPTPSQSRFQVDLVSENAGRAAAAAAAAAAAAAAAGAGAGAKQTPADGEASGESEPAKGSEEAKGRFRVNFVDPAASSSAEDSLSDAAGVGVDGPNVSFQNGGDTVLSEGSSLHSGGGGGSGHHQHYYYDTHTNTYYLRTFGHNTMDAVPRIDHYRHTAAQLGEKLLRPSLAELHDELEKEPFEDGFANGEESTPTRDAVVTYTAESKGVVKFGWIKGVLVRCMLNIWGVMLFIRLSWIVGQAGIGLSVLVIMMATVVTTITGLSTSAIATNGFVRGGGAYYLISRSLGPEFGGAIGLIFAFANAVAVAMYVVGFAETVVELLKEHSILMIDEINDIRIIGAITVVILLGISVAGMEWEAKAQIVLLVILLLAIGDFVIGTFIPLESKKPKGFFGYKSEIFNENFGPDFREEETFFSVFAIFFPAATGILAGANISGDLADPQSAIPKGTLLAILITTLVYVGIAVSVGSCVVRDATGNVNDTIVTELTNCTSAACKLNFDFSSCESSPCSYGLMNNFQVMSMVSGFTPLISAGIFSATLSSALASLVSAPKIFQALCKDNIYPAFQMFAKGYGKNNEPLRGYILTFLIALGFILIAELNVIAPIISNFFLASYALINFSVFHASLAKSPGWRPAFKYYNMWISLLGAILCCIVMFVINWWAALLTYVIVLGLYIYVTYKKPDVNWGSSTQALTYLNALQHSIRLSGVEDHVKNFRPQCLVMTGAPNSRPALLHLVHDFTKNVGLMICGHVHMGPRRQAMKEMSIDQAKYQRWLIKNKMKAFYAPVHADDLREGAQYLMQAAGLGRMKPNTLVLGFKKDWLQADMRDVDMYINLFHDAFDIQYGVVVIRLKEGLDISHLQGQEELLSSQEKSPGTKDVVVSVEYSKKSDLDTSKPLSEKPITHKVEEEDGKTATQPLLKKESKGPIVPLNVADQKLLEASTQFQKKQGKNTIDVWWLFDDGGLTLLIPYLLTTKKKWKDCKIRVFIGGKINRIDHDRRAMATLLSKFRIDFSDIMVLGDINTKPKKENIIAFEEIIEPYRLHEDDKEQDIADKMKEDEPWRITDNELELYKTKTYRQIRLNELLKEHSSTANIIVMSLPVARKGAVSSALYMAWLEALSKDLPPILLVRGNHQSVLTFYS
Briefly: Cl- influx assay in NKCC1-transfected HEK293 cells. Type of data set: cell-based. As to conditions: for inhibition at 10 µM: HEK293, read-out: Inhibition 10 μM Cl- influx (%); for inhibition at 100 µM: HEK293, read-out: Inhibition 100 μM Cl- influx (%); for Inhibition 10 μM Cl- influx (%) / Inhibition 100 μM Cl- influx (%): NKCC1-transfected HEK293 cells. The procedure:
HEK293 cells were cultured in Dulbecco’s modified Eagle’s medium (DMEM) supplemented with 10% fetal bovine serum, 1% L-glutamine, 100 U/mL penicillin, and 100 μg/mL streptomycin and maintained at 37 °C in a 5% CO2 humidified atmosphere. To assess NKCC1 and NKCC2 activity (Cl^– influx assay), 3 million HEK cells were plated in a 10 cm cell-culture dish and transfected with a transfection mixture comprising 5 mL of DMEM, 4 mL of Opti-MEM, 8 μg of DNA plasmid coding for NKCC1 (PRK-NKCC1 obtained from Medical Research Council and the University of Dundee), NKCC2 (OriGene plasmid #RC216145) subcloned in PRK5 plasmid, or mock control (empty vector), together with 8 μg of a plasmid coding for the Cl^–-sensitive variant of the membrane-targeted fluorescent protein YFP, mbYFPQS (Addgene plasmid #80742),[53] and 32 μL of Lipofectamin 2000. To assess KCC2 activity (Tl influx assay), cells were transfected with 8 μg of KCC2[54] subcloned in the PRK5 plasmid or mock control (empty vector) and 16 μL of Lipofectamin 2000. After 4 h, the cells were collected and plated in 96-well black-walled, clear-bottomed plates at a density of 2.5 × 10^4. After 48 h, cells were used for the Cl^– or Tl influx assays. All reagents were purchased from Life Technologies, unless otherwise specified.
Transfected cells were treated with 10 μM or 100 μM bumetanide (as positive controls), DMSO (as the negative control), or with each of our compounds in 100 μL/well of a Cl^–-free hypotonic solution (67.5 mM Na^+ gluconate, 2.5 mM K^+ gluconate, 15 mM HEPES pH 7.4, 50 mM glucose, 1 mM Na2HPO4, 1 mM NaH2PO4, 1 mM MgSO4, and 1 mM CaSO4). After 30 min of incubation, plates were loaded into a Victor 3V (PerkinElmer) multiplate reader equipped with an automatic liquid injector system, and fluorescence of Cl^–-sensitive mbYFPQS was recorded with excitation at 485 nm and emission at 535 nm. For each well, fluorescence was first recorded for 20 s of the baseline and for 60 s after delivery of a NaCl concentrated solution (74 mM final concentration in the assay well). Fluorescence of Cl^–-sensitive mbYFPQS is inversely correlated to the intracellular Cl^– concentration;[53] therefore, chloride influx into the cells determined a decrease in mbYFPQS fluorescence. To represent the fluorescent traces in time, we normalized the fluorescence value for each time point to the average of the fluorescence value of the first 20 s of the baseline (ΔF/F0). To quantify the average effects as represented by the bar plots, we expressed the decrease in fluorescence upon NaCl application as the average of the last 10 s of ΔF/F0 normalized traces. Moreover, for each experiment, to account for the contribution of Cl^– changes that were dependent on transporters/exchangers other than NKCC1 or NKCC2, we subtracted the value of the last 10 s of ΔF/F0 normalized traces obtained from mock-transfected cells (either control or treated) from the respective ΔF/F0 value obtained from the cells transfected with NKCC1 or NKCC2. We then presented in the figures all the data as a percentage of the fluorescence decrease versus the value of the control DMSO.

A short description of data set [2]: Aqueous kinetic solubility in PBS pH 7.4. It counts as physicochemical. As to conditions: phosphate buffered saline (PBS); aqueous kinetic solubility from 10 mM DMSO solution in PBS pH 7.4; target concentration 250 μM (final DMSO 2.5%). Here is the method: 1. Aqueous kinetic solubility.
30 µL aliquots of 10 mM DMSO stock solution of the test compound were incubated in Phosphate
Buffered Saline (PBS) at pH 7.4 at 25°C for 24h. After centrifugation the dissolved compound in the
supernatant was quantified by LC-MS/MS.
Aqueous kinetic solubility was determined by UV quantification at
215 nm. […]

≈ marks a conversion by molar mass, not a printed value. Some results are limits rather than exact numbers.

Usually half-life stands for the time in which the quantity being followed falls by half. Higher therefore signals slow decline. As usually defined, the inhibition is the percentage by which the read-out fell short of the control. For orientation: solubility means the concentration that dissolves in the medium under given conditions. A low value points to a poorly soluble substance. As to `CCCCCCCCNc1ccc([N+](=O)[O-])cc1S(N)(=O)=O` [Compound 7, 5-Nitro-2-(octylamino)benzenesulfonamide], the half-life at 5 μM in data set [1] is less than 5 min. Further, at NKCC1, the inhibition at 10 µM was determined as 0.3 ± 2.9% and the inhibition at 100 µM worked out at 5.8 ± 6.8%. In data set [2], the solubility at 24 h is less than 1 µM.
`CCCCCCNc1ccc([N+](=O)[O-])cc1S(=O)(=O)N(C)C` [Compound 12, 2-(Hexylamino)-N,N-dimethyl-5-nitro-benzenesulfonamide] returned a half-life at 5 μM in data set [1] of less than 5 min. In addition, at NKCC1, the “Inhibition 10 μM Cl- influx (%)” value is “Inactive” and the inhibition at 100 µM turned out to be 4.9 ± 6.8%. The compound also came in with a solubility at 24 h in data set [2] of 1 µM (≈ 0.329 µg/mL).
In turn, `CCCCCCNc1ccc(C(=O)O)cc1S(N)(=O)=O` [Compound 16, 4-(Hexylamino)-3-sulfamoyl-benzoic Acid] registered a half-life at 5 μM in data set [1] of more than 60 min. On NKCC1, the “Inhibition 10 μM Cl- influx (%)” value is “Inactive” and the inhibition at 100 µM is 4.9 ± 3.7%. Also, the solubility at 24 h in data set [2] worked out at 238 µM (≈ 71.5 µg/mL).
Compound `CCCCCCCCNc1ccc(C(=O)O)cc1S(N)(=O)=O` [Compound 17, 4-(Octylamino)-3-sulfamoyl-benzoic Acid] displayed a half-life at 5 μM in data set [1] of 18 min. Moreover, at NKCC1, the “Inhibition 10 μM Cl- influx (%)” value was “Inactive” and the inhibition at 100 µM came to 24 ± 8.5%. This compound had a solubility at 24 h in data set [2] of more than 250 µM.
In turn, `CCCCCCNc1ccc(C(=O)O)cc1S(=O)(=O)NC` [Compound 20, 4-(Hexylamino)-3-(methylsulfamoyl)benzoic Acid] returned a half-life at 5 μM in data set [1] of 29 min. In addition, on NKCC1, the “Inhibition 10 μM Cl- influx (%)” value is recorded as “Inactive” and the “Inhibition 100 μM Cl- influx (%)” value is recorded as “Inactive”. Besides, in data set [2], the solubility at 24 h was determined as 247 µM (≈ 77.7 µg/mL).
`CCCCCCCCNc1ccc(C(=O)O)cc1S(=O)(=O)NC` [Compound 21, 3-(-N-Methylsulfamoyl)-4-(octylamino)benzoic Acid] came in with a half-life at 5 μM in data set [1] of 12 min. In addition, on NKCC1, the inhibition at 10 µM came to 16.2 ± 4.8% and the inhibition at 100 µM was determined as 20.1 ± 14.7%. The amount in solution in data set [2] (solubility at 24 h) came to 53 µM (≈ 18.2 µg/mL).
Turning to `CCCCCCNc1ccc(C(=O)O)cc1S(=O)(=O)N(C)C` [Compound 24, 3-(-N,N-Dimethylsulfamoyl)-4-(hexylamino)benzoic Acid], the half-life at 5 μM in data set [1] came out at 17 min. Besides, at NKCC1, the “Inhibition 10 μM Cl- influx (%)” value is recorded as “Inactive” and the inhibition at 100 µM was determined as 19.8 ± 5.2%. Also, the solubility at 24 h in data set [2] came to 243 µM (≈ 79.8 µg/mL).
With `CCCCCCCCNc1ccc(C(=O)O)cc1S(=O)(=O)N(C)C` [Compound 25, 3-(-N,N-Dimethylsulfamoyl)-4-(octylamino)benzoic Acid], the half-life at 5 μM in data set [1] turned out to be 13 min. Further, on NKCC1, the “Inhibition 10 μM Cl- influx (%)” value is on record as “Inactive” and the inhibition at 100 µM was 70.6 ± 9.2%. Moreover, in data set [2], the solubility at 24 h worked out at 52 µM (≈ 18.5 µg/mL).
`CN(C)S(=O)(=O)c1cc(C(=O)O)ccc1NCCC(C)(C)C` [Compound 26, 4-(-N-3,3-Dimethylbutylamino)-3-(dimethylsulfamoyl)benzoic Acid] registered a half-life at 5 μM in data set [1] of more than 60 min. On NKCC1, the “Inhibition 10 μM Cl- influx (%)” value is “Inactive” and the “Inhibition 100 μM Cl- influx (%)” value is given as “Inactive”. For the same compound, in data set [2], the solubility at 24 h was more than 250 µM.
As to `CN(C)S(=O)(=O)c1cc(C(=O)O)ccc1NCCCC(F)(F)F` [Compound 27, 3-(-N,N-Dimethylsulfamoyl)-4-(4,4,4-trifluorobutylamino)benzoic Acid], in data set [1], the half-life at 5 μM is more than 60 min. On NKCC1, the “Inhibition 10 μM Cl- influx (%)” value is on record as “Inactive” and the inhibition at 100 µM was 1.9 ± 5%. The compound also registered a solubility at 24 h in data set [2] of 245 µM (≈ 86.8 µg/mL).
`CN(C)S(=O)(=O)c1cc(C(=O)O)ccc1NCCCCCC(F)(F)F` [Compound 28, 3-(-N,N-Dimethylsulfamoyl)-4-(6,6,6-trifluorohexylamino)benzoic Acid] had a half-life at 5 μM in data set [1] of more than 60 min. On NKCC1, the “Inhibition 10 μM Cl- influx (%)” value is listed as “Inactive” and the inhibition at 100 µM is 12.6 ± 4.1%. The solubility at 24 h in data set [2] was found to be 249 µM (≈ 95.2 µg/mL).
On to `COCCNc1ccc(C(=O)O)cc1S(=O)(=O)N(C)C` [Compound 29, 3-(-N,N-Dimethylsulfamoyl)-4-(2-methoxyethylamino)benzoic Acid], for which, in data set [1], the half-life at 5 μM is more than 60 min. On NKCC1, the inhibition at 10 µM amounted to 1.4 ± 2.7% and the inhibition at 100 µM amounted to 4.1 ± 5%. Besides, in data set [2], the concentration in solution (solubility at 24 h) was 237 µM (≈ 71.7 µg/mL).
For `COCCCCNc1ccc(C(=O)O)cc1S(=O)(=O)N(C)C` [Compound 30, 3-(-N,N-Dimethylsulfamoyl)-4-(4-methoxybutylamino)benzoic Acid], in data set [1], the half-life at 5 μM was more than 60 min. Further, on NKCC1, the “Inhibition 10 μM Cl- influx (%)” value is listed as “Inactive” and the inhibition at 100 µM came out at 5.2 ± 3.7%. The solubility at 24 h in data set [2] turned out to be 247 µM (≈ 81.6 µg/mL).
